Data as given in ChEMBL document CHEMBL1201862, “PubChem BioAssay data set” (2004).
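Exposure lasted 48 hours, with cells grown in 96-well plates and compounds tested at five concentrations. GI50: concentration for 50% inhibition of growth.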 Active and inactive are the calls of the source. No stated cut-off is given here; in the data, active = GI50 up to about 1.1 µM and inactive = higher.

Assays:
Test in all cases: NCI tumour cell line growth inhibition, 48 h
[1] = system: MDA-N
[2] = system: EKVX
[3] = system: SN12C
[4] = system: T47D
[5] = system: UACC-62
[6] = system: UACC-257
[7] = system: A549
[8] = system: ACHN
[9] = system: NCI-H522
[10] = system: LOX IMVI
[11] = system: M14
[12] = system: MCF7
[13] = system: A498
[14] = system: IGROV-1
[15] = system: BT-549
[16] = system: OVCAR-8
[17] = system: HOP-92
[18] = system: CAKI-1
[19] = system: NCI-H460
[20] = system: SK-MEL-28

Structure (SMILES)	GI50 [1]	GI50 [2]	GI50 [3]	GI50 [4]	GI50 [5]	GI50 [6]	GI50 [7]	GI50 [8]	GI50 [9]	GI50 [10]	GI50 [11]	GI50 [12]	GI50 [13]	GI50 [14]	GI50 [15]	GI50 [16]	GI50 [17]	GI50 [18]	GI50 [19]	GI50 [20]
COc1ccc(/C=C2\NC(=S)N(/C=C3\C(=O)Oc4ccccc4C3=O)C2=O)cc1OC	> 100 µM (inactive)	54.5 µM (inactive)	> 100 µM (inactive)	> 100 µM (inactive)	> 100 µM (inactive)	> 100 µM (inactive)	> 100 µM (inactive)	91 µM (inactive)	22.6 µM (inactive)	> 100 µM (inactive)	> 100 µM (inactive)	> 100 µM (inactive)	54 µM (inactive)	78.3 µM (inactive)	> 100 µM (inactive)	> 100 µM (inactive)	73.6 µM (inactive)	> 100 µM (inactive)	> 100 µM (inactive)	
N#Cc1c(N2CCN(c3ccc([N+](=O)[O-])cc3)CC2)[n+]([O-])c2ccc(-c3ccc([N+](=O)[O-])cc3)cc2[n+]1[O-]	31.8 µM (inactive)	7.28 µM (inactive)		3.58 µM (inactive)	18 µM (inactive)	16.4 µM (inactive)	2.49 µM (inactive)	> 49 µM (inactive)		0.9 µM (active)	19.2 µM (inactive)	> 100 µM (inactive)	> 100 µM (inactive)	1.69 µM (inactive)	> 100 µM (inactive)	1.62 µM (inactive)		5.35 µM (inactive)	2.5 µM (inactive)	> 89.3 µM (inactive)
CS(=O)(=O)Nc1ccc2ccccc2c1-c1c(NS(C)(=O)=O)ccc2ccccc12	> 25 µM (inactive)	> 25 µM (inactive)	> 25 µM (inactive)	> 25 µM (inactive)		> 25 µM (inactive)	> 25 µM (inactive)	0.982 µM (active)	> 25 µM (inactive)	> 25 µM (inactive)	> 25 µM (inactive)	1.17 µM (inactive)	> 25 µM (inactive)	> 25 µM (inactive)	> 25 µM (inactive)	> 25 µM (inactive)	> 25 µM (inactive)	> 25 µM (inactive)	> 25 µM (inactive)	> 25 µM (inactive)
Cc1ccc(C(=O)/C=C(\O)C(=O)NN=C(c2ccccc2)c2ccccc2)cc1	> 100 µM (inactive)	> 100 µM (inactive)		> 100 µM (inactive)	68.9 µM (inactive)	> 100 µM (inactive)	41.2 µM (inactive)	45 µM (inactive)		12.2 µM (inactive)	> 100 µM (inactive)	54.6 µM (inactive)	> 100 µM (inactive)	62.7 µM (inactive)	47.9 µM (inactive)	76.4 µM (inactive)	28 µM (inactive)	> 100 µM (inactive)	40.6 µM (inactive)	> 100 µM (inactive)
CCSC1=N/C(=C\c2ccco2)C(Cl)=N1	> 100 µM (inactive)	> 100 µM (inactive)	> 100 µM (inactive)	> 100 µM (inactive)	> 100 µM (inactive)	> 100 µM (inactive)	> 100 µM (inactive)	> 100 µM (inactive)		> 100 µM (inactive)	> 100 µM (inactive)	> 100 µM (inactive)	> 100 µM (inactive)	> 100 µM (inactive)	> 100 µM (inactive)	> 100 µM (inactive)	> 100 µM (inactive)	> 100 µM (inactive)	> 100 µM (inactive)	> 100 µM (inactive)
CCOc1cc(C2SCC(=O)N2c2ccc3c(c2)Oc2c(Cl)c4c(c(Cl)c2=N3)Oc2cc(N3C(=O)CSC3c3ccc(O)c(OCC)c3)ccc2N=4)ccc1O (stereo not drawn)	34.8 µM (inactive)	37.2 µM (inactive)		11 µM (inactive)		80.9 µM (inactive)	23.8 µM (inactive)	26.6 µM (inactive)	34 µM (inactive)	35.2 µM (inactive)	27.2 µM (inactive)	33.3 µM (inactive)	58.5 µM (inactive)	41.9 µM (inactive)	21.7 µM (inactive)	32.7 µM (inactive)	24.5 µM (inactive)	> 100 µM (inactive)	30.6 µM (inactive)	37.8 µM (inactive)
CN(C)CC1CCC/C(=C\c2ccc(OC(=O)c3ccc(Cl)cc3)cc2)C1=O (stereo not drawn)	2.38 µM (inactive)	2.34 µM (inactive)	2.14 µM (inactive)	0.757 µM (active)	3.3 µM (inactive)	4.29 µM (inactive)	2.38 µM (inactive)	3.57 µM (inactive)		0.493 µM (active)	1.68 µM (inactive)	0.33 µM (active)	7.26 µM (inactive)	2.23 µM (inactive)	2.81 µM (inactive)	1.58 µM (inactive)	2.07 µM (inactive)	2.19 µM (inactive)	5.36 µM (inactive)	3.15 µM (inactive)
O=C1CC(=O)NC(NN2C(=O)CSC2c2ccccc2)=N1 (stereo not drawn)	> 100 µM (inactive)		> 100 µM (inactive)	> 100 µM (inactive)	> 100 µM (inactive)	> 100 µM (inactive)	> 100 µM (inactive)	> 100 µM (inactive)	> 100 µM (inactive)		> 100 µM (inactive)	> 100 µM (inactive)	> 100 µM (inactive)	> 100 µM (inactive)	> 100 µM (inactive)	> 100 µM (inactive)	55.8 µM (inactive)	> 100 µM (inactive)	> 100 µM (inactive)	> 100 µM (inactive)
O=[N+]([O-])C(/C(Cl)=C(/Cl)N1CCOCC1)=C1\NCCO1	> 100 µM (inactive)	> 100 µM (inactive)	> 100 µM (inactive)	> 100 µM (inactive)	> 100 µM (inactive)	> 100 µM (inactive)	> 100 µM (inactive)	> 100 µM (inactive)			> 100 µM (inactive)	> 100 µM (inactive)	> 100 µM (inactive)		> 100 µM (inactive)	> 100 µM (inactive)		> 100 µM (inactive)	> 100 µM (inactive)	> 100 µM (inactive)
Cc1cc2nnn(C3CCCO3)c2cc1C (stereo not drawn)	> 100 µM (inactive)	> 100 µM (inactive)	> 100 µM (inactive)	> 100 µM (inactive)	> 100 µM (inactive)	> 100 µM (inactive)	> 100 µM (inactive)		> 100 µM (inactive)		> 100 µM (inactive)	> 100 µM (inactive)	> 100 µM (inactive)	> 100 µM (inactive)	> 100 µM (inactive)	> 100 µM (inactive)		> 100 µM (inactive)	> 100 µM (inactive)	
Cc1nn(C(=O)Cc2ccccc2)c2c1C(c1ccc(O)cc1O)SC(=N)N2 (stereo not drawn)	> 100 µM (inactive)	> 100 µM (inactive)	> 100 µM (inactive)	> 100 µM (inactive)	> 100 µM (inactive)	> 100 µM (inactive)	> 100 µM (inactive)	> 100 µM (inactive)	> 100 µM (inactive)	> 100 µM (inactive)	> 100 µM (inactive)	> 100 µM (inactive)	> 100 µM (inactive)	> 100 µM (inactive)	> 100 µM (inactive)	> 100 µM (inactive)		> 100 µM (inactive)	> 100 µM (inactive)	> 100 µM (inactive)
Cc1cccc(-c2nc3ccc([N+](=O)[O-])cc3c(=O)o2)c1	> 100 µM (inactive)		72.3 µM (inactive)	47.5 µM (inactive)	21.1 µM (inactive)	64.3 µM (inactive)	73.3 µM (inactive)	83.8 µM (inactive)	32.3 µM (inactive)	26.2 µM (inactive)		62.5 µM (inactive)	28.6 µM (inactive)	> 100 µM (inactive)	51.4 µM (inactive)	46.7 µM (inactive)	16 µM (inactive)	> 100 µM (inactive)	51.8 µM (inactive)	> 100 µM (inactive)
COc1cc2c(cc1OC)C(=O)N(NC1=NCCN1)C2=O	> 100 µM (inactive)	> 100 µM (inactive)	> 100 µM (inactive)	> 100 µM (inactive)	> 100 µM (inactive)	> 100 µM (inactive)	> 100 µM (inactive)	> 100 µM (inactive)	> 100 µM (inactive)	> 100 µM (inactive)	> 100 µM (inactive)	> 100 µM (inactive)	> 100 µM (inactive)	> 100 µM (inactive)	> 100 µM (inactive)	> 100 µM (inactive)		> 100 µM (inactive)	> 100 µM (inactive)	> 100 µM (inactive)
COCC1OC(N2C(=O)NC(=O)[C@@H]3C=C4CCCCC4=C[C@@H]32)C(OC)C1OC (stereo partly drawn)	> 100 µM (inactive)	> 100 µM (inactive)	> 100 µM (inactive)	> 100 µM (inactive)	> 100 µM (inactive)	> 100 µM (inactive)	> 100 µM (inactive)	> 100 µM (inactive)	> 100 µM (inactive)	> 100 µM (inactive)	> 100 µM (inactive)	> 100 µM (inactive)	> 100 µM (inactive)	> 100 µM (inactive)	> 100 µM (inactive)	> 100 µM (inactive)	75 µM (inactive)		> 100 µM (inactive)	> 100 µM (inactive)
OCCNCCN1CCN(CCCN2c3ccccc3Sc3ccc(C(F)(F)F)cc32)CC1	19 µM (inactive)	28.1 µM (inactive)	18.2 µM (inactive)	27.1 µM (inactive)	22.3 µM (inactive)	20.3 µM (inactive)	24 µM (inactive)	24.9 µM (inactive)	19.2 µM (inactive)	14.5 µM (inactive)	15.3 µM (inactive)	23.6 µM (inactive)	> 100 µM (inactive)	> 100 µM (inactive)	85.9 µM (inactive)	18 µM (inactive)		76.2 µM (inactive)	23.2 µM (inactive)	23.6 µM (inactive)
